Patent publication US20060128667A1, “Hydroxyphosphonates and phosphonophosphates as apolipoprotein e modulators” (priority 2002, published 2006)
Read-outs that look alike come from different tables or passages of the source.

Tested on: apoE secretion by THP-1 cell line
Format: cell-based, human
Conditions: THP-1 cells, 3 days
Source text: The hydroxyphosphonates (Ia) and phosphonophosphates (Ib) of the invention can modulate (increase or decrease) the apoE production in plasma and in tissues. The activities of the compounds can be determined in an in vitro cell assay consisting in determining the effect of the test compound in modulating the secretion of apoE by an apoE secreting cell line (e.g., a monocyte-macrophage cell line such as the THP-1 cell line; a liver derived cell line such as the HepG2 cell line, an intestinal derived cell line such as the CaCo2 cell line or a brain derived cell line such as the astrocytoma CCF-STTG1 cell line).
THP-1 cell line (ATCC TIB-202) are cultured in RPMI 1640 (with 2 mM of L-glutamine and 2 g/l of glucose, Invitrogen) supplemented with 2 g/l of sodium hydrogen carbonate (Fluka), 10 U/ml of penicillin, 10 μg/ml of streptomycin (Penicillin-Streptomycin, Invitrogen), 20 μM of 2-mercaptoethanol (Fluka) and 10% FCS (Amimed). Cells are incubated at 37° C. and 5% CO2.
Cells are seeded in 24 well tissue culture plates (Falcon), 2×10^5 cells in 500 μl of culture medium per well or 6 well plates for RT-PCR purpose, 1×10^6 cells in 2.5 ml of medium. PMA (Phorbol 12-myristate 13-acetate, Alexis), (stock in DMSO (Fluka) at 1 mg/ml) and other compounds are diluted in ethanol and added to the cells at an ethanol final concentration not exceeding 1%. Same volume of ethanol is added in controls. Plates are incubated for 3 days at 37° C. and 5% CO2 to allow cell differentiation and apoE secretion.
Medium contained in the wells is harvested and centrifuged 5 min at 1200 rpm. Supernatants are store at −20° C. until apoE quantification. The cell pellets are resuspended in PBS and counted with a Z1 Coulter Counter. After a wash with PBS, adherent cells in the well bottoms are detached with trypsin-EDTA solution 10× (Invitrogen) diluted in PBS. The reaction is stopped with the addition of culture medium and the detached cells are counted.
ApoE was quantified by ELISA. 96 well plates (Costar) are coated with 5% of gelatine (from porcine skin, Fluka) in carbonate-bicarbonate buffer (Sigma) for 1 hour at 37° C. After removing the coating solution, 100 μl of THP-1 supernatant are added per well, diluted 5 times in buffer (PBS, 1% Top-Block (Juro), 0.1% Tween 20 (Fluka)). The incubation last 1 hour at 37° C., then the wells are washed 3 times with 200 μl of buffer. Plates are incubated for 1 hour at 37° C. with continuous stirring with the primary antibody (goat anti-human apoE IgG, Calbiochem) at a 10000-time dilution in buffer, 100 μl per well. After 3 washes, plates are incubated with the secondary antibody (rabbit anti-goat-IgG peroxidase conjugated, Sigma) diluted 5000 times, 100 μl per well, at 37° C. with shaking. Then the wells are washed 5 more times and the detection is achieved by adding 100 μl per well of o-phenylenediamine dihydrochloride (Sigma) and incubated for 15-20 minutes with shaking at room temperature. When the appropriated colour is reached, the reaction is stopped by adding 50 μl per well of 3 M sulfuric acid (Fluka) with shaking for 1 minute at room temperature. The absorbance is read at 492 nm versus 620 nm with a microplate photometer (Anthos Reader 2001).

SMILES	% ApoE Change (compound 25 μM, 1.25 nM PMA)	% ApoE Change (compound 25 μM, 2.5 nM PMA)	% ApoE Change (compound 50 μM, 1.25 nM PMA)	% ApoE Change (compound 50 μM, 2.5 nM PMA)	% ApoE Change (compound 100 μM, 1.25 nM PMA)	% ApoE Change (compound 100 μM, 2.5 nM PMA)
CCOP(=O)(OCC)OC(c1cccc(OCc2cccnc2)c1)P(=O)(OCC)OCC (stereo not drawn) [Dietbyl 1-(diethoxy-phosphinyloxy)-1-[3-(pyridin-3-yl-methoxy)-phenyl]-methylphosphonate]	52%	15%	551%	6%	1351%	98%
CCOP(=O)(OCC)OC(c1ccc(-c2ccccc2)cc1)P(=O)(OCC)OCC (stereo not drawn) [Diethyl 1-(diethoxy-phosphinyloxy)-1-(biphenyl-4-yl)-methyiphosphonate]	172%	138%	198%	119%	142%	71%
CCOP(=O)(OCC)OC(c1cccc(OCCCCCN2C(=O)c3ccccc3C2=O)c1)P(=O)(OCC)OCC (stereo not drawn) [Diethyl 1-(diethoxy-phosphinyloxy)-1-[3-(5-N-phthalimido-pentoxy)-phenyl]-methylphosphonate]	3375%	1196%	1526%	310%	−93%	−92%
CCOP(=O)(OCC)OC(c1cc(OC)c2c(c1)OCO2)P(=O)(OCC)OCC (stereo not drawn) [Diethyl 1-(diethoxy-phosphinyloxy)-1-[4-(3-methoxy-4,5-methylenedioxy)-phenyl]-methylphosphonate]	−19%	7%	3%	−5%	33%	40%
CCOP(=O)(OCC)OC(c1ccc(OCc2cccnc2)cc1)P(=O)(OCC)OCC (stereo not drawn) [Diethyl 1-(diethoxy-phosphinyloxy)-1-[4-(pyridin-3-yl-methoxy)-pheny]-methylphosphonate]	95%	179%	189%	245%	535%	434%
CCOP(=O)(OCC)C(O)c1ccc(OCc2ccccn2)cc1 (stereo not drawn) [Diethyl 1-hydroxy-1-[4-(pyridin-2-yl-methoxy)-phenyl]-methlyphosphonate]	−9%	0%	24%	3%	76%	100%
CCOP(=O)(OCC)C(O)c1ccc(OCCCN2C(=O)c3ccccc3C2=O)cc1 (stereo not drawn) [Diethyl 1-hydroxy-1-{4-[3-N-phthalimido-propoxy]-phenyl}-methylphosphonate]	543%	304%	961%	396%	1436%	465%
